# Measurements as given in ChEMBL document CHEMBL2086385, “Synthesis and antimicrobial evaluation of L-phenylalanine-derived C5-substituted rhodanine and chalcone derivatives containing thiobarbituric acid or 2-thioxo-4-thiazolidinone” (2012).
# Tests used:
# Format in all cases: functional
# Staphylococcus aureus [1] = assay: Antibacterial activity against Staphylococcus aureus KCTC 503 after 24 hrs by broth microdilution method; settings: KCTC 503, 24 h
# Escherichia coli = assay: Antibacterial activity against Escherichia coli CCARM 1356 after 24 hrs by broth microdilution method; settings: CCARM 1356, 24 h
# Staphylococcus aureus [2] = assay: Antibacterial activity against Staphylococcus aureus RN4220 after 24 hrs by broth microdilution method; settings: RN4220, 24 h
# Staphylococcus aureus [3] = assay: Antibacterial activity against quinolone-resistant Staphylococcus aureus CCARM 3519 clinical isolate after 24 hrs by broth microdilution method; settings: CCARM 3519, 24 h
# Staphylococcus aureus [4] = assay: Antibacterial activity against Staphylococcus aureus KCTC 209 after 24 hrs by broth microdilution method; settings: KCTC 209, 24 h
# Staphylococcus aureus [5] = assay: Antibacterial activity against methicillin-resistant Staphylococcus aureus CCARM 3167 clinical isolate after 24 hrs by broth microdilution method; settings: CCARM 3167, 24 h
# Staphylococcus aureus [6] = assay: Antibacterial activity against methicillin-resistant Staphylococcus aureus CCARM 3506 clinical isolate after 24 hrs by broth microdilution method; settings: CCARM 3506, 24 h
# Staphylococcus aureus [7] = assay: Antibacterial activity against quinolone-resistant Staphylococcus aureus CCARM 3505 clinical isolate after 24 hrs by broth microdilution method; settings: CCARM 3505, 24 h
SMILES,MIC (Staphylococcus aureus [1]) [µg/mL],MIC (Escherichia coli) [µg/mL],MIC (Staphylococcus aureus [2]) [µg/mL],MIC (Staphylococcus aureus [3]) [µg/mL],MIC (Staphylococcus aureus [4]) [µg/mL],MIC (Staphylococcus aureus [5]) [µg/mL],MIC (Staphylococcus aureus [6]) [µg/mL],MIC (Staphylococcus aureus [7]) [µg/mL]
O=Cc1ccc(OCc2ccccc2)cc1,> 64,> 64,> 64,> 64,> 64,> 64,> 64,> 64
O=Cc1ccc(OCc2cccc(F)c2)cc1,> 64,> 64,> 64,> 64,> 64,> 64,> 64,> 64
O=Cc1ccc(OCc2cccc(Cl)c2)cc1,> 64,> 64,> 64,> 64,> 64,> 64,> 64,> 64
Cc1onc(-c2ccccc2)c1C(=O)N[C@@H]1C(=O)N2[C@@H]1SC(C)(C)[C@@H]2C(=O)O [OXACILLIN],1,> 64,1,1,1,> 64,> 64,1
O=Cc1ccc(/C=C/C(=O)c2ccccc2Cl)cc1,> 64,> 64,> 64,> 64,> 64,> 64,> 64,> 64
O=Cc1ccc(/C=C/C(=O)c2cccc(Cl)c2)cc1,> 64,> 64,> 64,> 64,> 64,> 64,> 64,> 64
O=C1NC(=S)S/C1=C/c1ccc(/C=C/C(=O)c2cccc(Cl)c2)cc1,> 64,> 64,> 64,> 64,> 64,> 64,> 64,> 64
COc1ccccc1C(=O)/C=C/c1ccc(C=O)cc1,> 64,> 64,> 64,> 64,> 64,> 64,> 64,> 64
O=Cc1ccc(/C=C/C(=O)c2cccc(Br)c2)cc1,> 64,> 64,> 64,> 64,> 64,> 64,> 64,> 64
O=C1NC(=S)NC(=O)C1=Cc1ccc(/C=C/C(=O)c2ccccc2Cl)cc1,> 64,> 64,> 64,> 64,> 64,> 64,> 64,> 64
O=Cc1ccc(OCc2ccc(Br)cc2)cc1,> 64,> 64,> 64,> 64,> 64,> 64,> 64,> 64
O=Cc1ccc(/C=C/C(=O)c2ccc(Cl)cc2Cl)cc1,> 64,> 64,> 64,> 64,> 64,> 64,> 64,> 64
O=C1NC(=S)NC(=O)C1=Cc1ccc(/C=C/C(=O)c2cccc(Cl)c2)cc1,> 64,> 64,> 64,> 64,> 64,> 64,> 64,> 64
O=C1NC(=S)NC(=O)C1=Cc1ccc(/C=C/C(=O)c2ccc(F)cc2)cc1,> 64,> 64,> 64,> 64,> 64,> 64,> 64,> 64
Cc1ccc(C(=O)/C=C/c2ccc(C=O)cc2)cc1,> 64,> 64,> 64,> 64,> 64,> 64,> 64,> 64
O=Cc1ccc(/C=C/C(=O)c2ccccc2Br)cc1,> 64,> 64,> 64,> 64,> 64,> 64,> 64,> 64
